How the values were obtained:
p-Akt1 in LNCaP cells = biological target: T1, p-Akt1 in LNCaP cells (Homo sapiens, UniProt P31749); experiment: Phospho-Akt cellular SureFire assay, p-Akt1 in LNCaP cells; type: cell-based; conditions: read-out: Biological Assay 2 IC50 (nM) Akt1 LNCaP
T1 construct: SureFire assays to detect cellular p-Akt1, p-Akt2 and p-Akt3 levels in WM115 cells (Akt2/3) and LNCaP cells (Akt1); endogenous in cells; host or cells: LNCaP (ECACC 89110211)
Source text: Biological Assay 2: Phospho-Akt (p-Akt) Cellular SureFire Assays
The following describes SureFire assays to detect cellular p-Akt1, p-Akt2 and p-Akt3 levels in WM115 cells (Akt2/3) and LNCaP cells (Akt1). In the case of Akt2 and Akt3, Streptavidin-coated donor beads capture a biotinylated anti-mouse antibody that in turn recognises a mouse total Akt antibody which is specific to each isoform. The protein A-conjugated acceptor beads capture an antibody that recognises the phosphoprotein. Similarly in the Akt1 kit, the donor and acceptor beads are used to capture each antibody pair consisting of an antibody that specifically recognises Akt1 as well as an antibody that recognises the phosphoprotein. In each case, close proximity of the beads allows energy transfer from donor to acceptor.
AlphaScreen® SureFire™ Phospho-Akt1 (pThr308) Kit from Perkin Elmer (TGRA2S10K)
LNCaP cells (ECACC, 89110211) cultured in RPMI-1640 culture media (Fisher, 10665193) supplemented with 2 mM L-glutamine, 1% sodium pyruvate and 10% FBS
Cell treatment: 1×10^5 WM115 cells or 5×10^4 LNCaP cells were seeded into each well of a 96 well poly-D-Lysine coated tissue culture plate and incubated overnight at 37° C.+5% CO2. Media was removed from cells and replaced with assay buffer consisting of the full culture media described above but with 0.1% FBS instead of 10% FBS. Only WM115 cells were stimulated at 37° C.+5% CO2 for 10 min with 5 μL insulin at a final concentration of 100 nM. Cells were incubated with 5 μL of test compound at a final DMSO concentration of 0.3% for 15 min at 37° C.+5% CO2. Cell lysis was carried out according to kit instructions.
Assay format (performed in subdued lighting): 4 μL cell lysate and 5 μL reaction buffer were incubated together in the dark at room temperature for 2 h. Reaction buffer was supplemented with a 1/5 dilution of activation buffer, a 1/50 dilution of acceptor beads and in the case of the custom kits, antibodies were added at dilutions of 1/20,000 for Akt2 and 1/2,000 for Akt3.
2 μL dilution buffer, supplemented with a 1/20 dilution of donor beads was added to each well and incubated for a further 2 h. Plates were read with the EnVision® Multilabel Plate Reader and using the AlphaScreen settings. Compound IC50 was determined using a 4-parameter equation.

p-Akt2 in WM115 cells = biological target: T2, p-Akt2 in WM115 cells (Homo sapiens, UniProt P31751); experiment: Phospho-Akt cellular SureFire assay, p-Akt2 in WM115 cells; type: cell-based; conditions: insulin stimulated, read-out: Biological Assay 2 IC50 (nM) Akt2 WM115
T2 construct: SureFire assays to detect cellular p-Akt1, p-Akt2 and p-Akt3 levels in WM115 cells (Akt2/3) and LNCaP cells (Akt1); endogenous in cells; host or cells: WM115 (ECACC 91061232), insulin-stimulated
Method in brief: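 WM115 cells in 0.1% FBS medium stimulated 10 min with 100 nM insulin, then exposed to compound for 15 min at 37° C (0.3% DMSO final). Lysates assayed by AlphaScreen with anti-(pThr308)Akt and isoform-specific total Akt2 antibodies; IC50 from 4-parameter fit.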

Akt3 = biological target: T3, Akt3 (Homo sapiens, UniProt Q9Y243); experiment: Akt activation assay (PDK1-mediated activation, LANCE Ultra crosstide TR-FRET), Akt3; type: biochemical; conditions: read-out: Biological Assay 1 IC50 (nM) Akt3
T3 construct: unspecified tag, removed (detagged) (cleaved yes); purchased SignalChem and Proteros (Akt3); Merck Millipore (PDK1) 14-452 (PDK1); none given for Akt3
Method in brief: (§1)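 Unactivated Akt (5 nM Akt1, 15 or 5 nM Akt2, 3 or 5 nM Akt3, by supplier) preincubated with compound, then activated by 5 nM PDK1 on DOPS/DOPC/PtdIns(3,4,5)P3 vesicles with 100 μM ATP and 100 nM Ulight-crosstide, pH 7.5, 30 min. Eu-anti-phospho-crosstide TR-FRET (665/615 nm); IC50 by 4-parameter fit.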

p-Akt3 in WM115 cells = biological target: T4, p-Akt3 in WM115 cells (Homo sapiens, UniProt Q9Y243); experiment: Phospho-Akt cellular SureFire assay, p-Akt3 in WM115 cells; type: cell-based; conditions: insulin stimulated, read-out: Biological Assay 2 IC50 (nM) Akt3 WM115
T4 construct: SureFire assays to detect cellular p-Akt1, p-Akt2 and p-Akt3 levels in WM115 cells (Akt2/3) and LNCaP cells (Akt1); endogenous in cells; host or cells: WM115 (ECACC 91061232), insulin-stimulated
Method in brief: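 WM115 cells were serum-reduced to 0.1% FBS, stimulated with 100 nM insulin for 10 min, then exposed to compound (0.3% DMSO) for 15 min at 37 °C. Lysates were assayed for Thr308-phosphorylated Akt3 by AlphaScreen SureFire using an isoform-specific total Akt3 capture antibody. IC50 was derived from a 4-parameter fit.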

Akt1 = biological target: T5, Akt1 (Homo sapiens, UniProt P31749); experiment: Akt activation assay (PDK1-mediated activation, LANCE Ultra crosstide TR-FRET), Akt1; type: biochemical; conditions: read-out: Biological Assay 1 IC50 (nM) Akt1
T5 construct: unspecified tag, removed (detagged) (cleaved yes); purchased SignalChem and Proteros (Akt1); Merck Millipore (PDK1) 14-452 (PDK1); none given for Akt1
Method in brief: as §1

Akt2 = biological target: T6, Akt2 (Homo sapiens, UniProt P31751); experiment: Akt activation assay (PDK1-mediated activation, LANCE Ultra crosstide TR-FRET), Akt2; type: biochemical; conditions: read-out: Biological Assay 1 IC50 (nM) Akt2
T6 construct: unspecified tag, removed (detagged) (cleaved yes); purchased SignalChem and Proteros (Akt2); Merck Millipore (PDK1) 14-452 (PDK1); none given for Akt2
Method in brief: as §1

T5 sequence (P31749 whole entry): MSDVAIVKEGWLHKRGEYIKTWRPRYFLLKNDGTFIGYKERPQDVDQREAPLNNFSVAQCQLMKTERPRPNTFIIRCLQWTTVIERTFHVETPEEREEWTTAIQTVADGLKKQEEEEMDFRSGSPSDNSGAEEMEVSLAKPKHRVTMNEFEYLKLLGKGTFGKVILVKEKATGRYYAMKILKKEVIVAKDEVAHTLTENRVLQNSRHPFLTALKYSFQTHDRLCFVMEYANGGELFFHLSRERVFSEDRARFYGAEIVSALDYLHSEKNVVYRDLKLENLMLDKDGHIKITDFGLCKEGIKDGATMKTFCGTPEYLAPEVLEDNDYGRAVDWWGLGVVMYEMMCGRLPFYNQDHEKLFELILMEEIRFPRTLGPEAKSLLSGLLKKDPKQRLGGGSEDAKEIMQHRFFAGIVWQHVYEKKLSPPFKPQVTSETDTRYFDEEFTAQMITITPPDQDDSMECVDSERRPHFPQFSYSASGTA
T1 sequence (P31749 whole entry): as above
T6 sequence (P31751 whole entry): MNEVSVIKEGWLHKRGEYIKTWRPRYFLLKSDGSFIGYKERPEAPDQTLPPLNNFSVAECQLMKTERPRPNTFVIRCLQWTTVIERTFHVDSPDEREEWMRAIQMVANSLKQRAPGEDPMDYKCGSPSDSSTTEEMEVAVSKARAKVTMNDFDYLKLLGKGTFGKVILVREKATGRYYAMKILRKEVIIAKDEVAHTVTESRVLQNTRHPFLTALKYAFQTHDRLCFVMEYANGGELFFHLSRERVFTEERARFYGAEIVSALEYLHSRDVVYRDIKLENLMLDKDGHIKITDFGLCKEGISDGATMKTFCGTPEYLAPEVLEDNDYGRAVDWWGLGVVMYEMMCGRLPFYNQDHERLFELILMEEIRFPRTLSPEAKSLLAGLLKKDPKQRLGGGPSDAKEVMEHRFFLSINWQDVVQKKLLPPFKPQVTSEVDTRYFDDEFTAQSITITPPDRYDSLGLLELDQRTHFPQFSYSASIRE
T2 sequence (P31751 whole entry): as above
T4 sequence (Q9Y243 whole entry): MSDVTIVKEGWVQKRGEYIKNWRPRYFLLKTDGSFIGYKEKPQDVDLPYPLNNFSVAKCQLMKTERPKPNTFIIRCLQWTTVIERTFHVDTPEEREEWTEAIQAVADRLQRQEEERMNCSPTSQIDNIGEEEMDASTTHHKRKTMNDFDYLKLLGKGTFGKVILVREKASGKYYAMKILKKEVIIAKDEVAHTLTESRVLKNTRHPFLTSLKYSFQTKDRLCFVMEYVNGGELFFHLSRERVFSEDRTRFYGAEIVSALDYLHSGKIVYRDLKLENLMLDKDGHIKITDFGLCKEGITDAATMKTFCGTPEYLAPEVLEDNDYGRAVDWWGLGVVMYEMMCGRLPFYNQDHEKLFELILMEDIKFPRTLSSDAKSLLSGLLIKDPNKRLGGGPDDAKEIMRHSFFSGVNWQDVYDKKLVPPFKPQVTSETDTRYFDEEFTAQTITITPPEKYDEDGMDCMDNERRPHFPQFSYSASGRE
T3 sequence (Q9Y243 whole entry): as above

Compound | IC50 (p-Akt1 in LNCaP cells) | IC50 (p-Akt2 in WM115 cells) | IC50 (Akt3) | IC50 (p-Akt3 in WM115 cells) | IC50 (Akt1) | IC50 (Akt2)
CC(=O)N(C)[C@H]1CC[C@H](CC(=O)Nc2cnc(-c3ccc([C@]4(N)C[C@](C)(O)C4)cc3)c(-c3ccccc3)c2)CC1 [Example 1, N-(6-(4-(trans-1-amino-3-hydroxy-3-methylcyclobutyl)phenyl)-5-phenylpyridin-3-yl)-2-(trans-4-(N-methylacetamido)cyclohexyl)acetamide] | 2700 nM | 1800 nM | 15 nM | 30 nM | 780 nM | 110 nM
CC(=O)NC1CCC(CC(=O)Nc2cnc(-c3ccc([C@]4(N)C[C@](C)(O)C4)cc3)c(-c3ccccc3)c2)CC1 (stereo partly drawn) [Example 2, 2-(trans-4-acetamidocyclohexyl)-N-(6-(4-(trans-1-amino-3-hydroxy-3-methylcyclobutyl)phenyl)-5-phenylpyridin-3-yl)acetamide] | 8700 nM | 4400 nM | 20 nM | 150 nM | 980 nM | 94 nM
CC(=O)N(C)[C@H]1CC[C@H](CC(=O)Nc2cnc(-c3ccc(C(C)(C)N)cc3)c(-c3ccccc3)c2)CC1 [Example 3, N-(6-(4-(2-aminopropan-2-yl)phenyl)-5-phenylpyridin-3-yl)-2-(trans-4-(N-methylacetamido)cyclohexyl)acetamide] | > 26000 nM | 10000 nM | 72 nM | 170 nM | > 30000 nM | > 30000 nM
CC(C)C(=O)N(C)[C@H]1CC[C@H](CC(=O)Nc2cnc(-c3ccc(C(C)(C)N)cc3)c(-c3ccccc3)c2)CC1 [Example 4, N-(trans-4-(2-((6-(4-(2-aminopropan-2-yl)phenyl)-5-phenylpyridin-3-yl)amino)-2-oxoethyl)cyclohexyl)-N-methylisobutyramide] | > 30000 nM | 7400 nM | 73 nM | 190 nM | > 30000 nM | 7300 nM
CC(=O)N(C)[C@H]1CC[C@H](CC(=O)Nc2cnc(-c3ccc(C(C)(C)N)cc3)c(-c3ccsc3)c2)CC1 [Example 6, N-(6-(4-(2-aminopropan-2-yl)phenyl)-5-(thiophen-3-yl)pyridin-3-yl)-2-(trans-4-(N-methylacetamido)cyclohexyl)acetamide] | > 30000 nM | > 21000 nM | 720 nM | 340 nM | > 30000 nM | > 24000 nM
CC(=O)N(C)[C@H]1CC[C@H](CC(=O)Nc2cnc(-c3ccc([C@H](C)N)cc3)c(-c3ccccc3)c2)CC1 [Example 7, N-(6-(4-((S)-1-aminoethyl)phenyl)-5-phenylpyridin-3-yl)-2-(trans-4-(N-methylacetamido)cyclohexyl)acetamide] | > 30000 nM | 10000 nM | 350 nM | 300 nM | > 30000 nM | 9200 nM

Second part, the molecule after the results:

IC50 (p-Akt1 in LNCaP cells) | IC50 (p-Akt2 in WM115 cells) | IC50 (Akt3) | IC50 (p-Akt3 in WM115 cells) | IC50 (Akt1) | IC50 (Akt2) | Compound
> 10000 nM | 5000 nM | 92 nM | 180 nM | 6100 nM | 520 nM | COC(=O)N(C)[C@H]1CC[C@H](C(F)C(=O)Nc2cnc(-c3ccc(C4(N)CCC4)cc3)c(-c3ccccc3)c2)CC1 (relative stereo) [Example 52, Methyl (trans-4-(2-((6-(4-(1-aminocyclobutyl)phenyl)-5-phenylpyridin-3-yl)amino)-1-fluoro-2-oxoethyl)cyclohexyl)(methyl)carbamate]
> 30000 nM | 12000 nM | 2600 nM | 480 nM | > 30000 nM |  | COC(=O)N(C)[C@H]1CC[C@H](C(C)C(=O)Nc2cnc(-c3ccc(C(C)(C)N)cc3)c(-c3ccccc3)c2)CC1 (stereo partly drawn) [Example A45, Methyl (trans-4-(1-((6-(4-(2-aminopropan-2-yl)phenyl)-5-phenylpyridin-3-yl)amino)-1-oxopropan-2-yl)cyclohexyl)(methyl)carbamate]
8800 nM | 3500 nM | 24 nM | 220 nM |  | 290 nM | CN(C(=O)C1CC1)[C@H]1CC[C@H](CC(=O)Nc2cc(-c3ccccc3)c(-c3ccc(C4(N)CCC4)cc3)cn2)CC1 [Example A72, N-(trans-4-(2-((5-(4-(1-aminocyclobutyl)phenyl)-4-phenylpyridin-2-yl)amino)-2-oxoethyl)cyclohexyl)-N-methylcyclopropanecarboxamide]
11000 nM | 3000 nM | 22 nM | 160 nM |  | 210 nM | CC(C)OC(=O)N(C)[C@H]1CC[C@H](CC(=O)Nc2cc(-c3ccccc3)c(-c3ccc([C@]4(N)C[C@](C)(O)C4)cc3)cn2)CC1 [Example A74, Isopropyl (trans-4-(2-((5-(4-(trans-1-amino-3-hydroxy-3-methylcyclobutyl)phenyl)-4-phenylpyridin-2-yl)amino)-2-oxoethyl)cyclohexyl)(methyl)carbamate]
4300 nM | 1200 nM | 13 nM | 59 nM |  | 190 nM | CN(C(=O)C1CCC1)[C@H]1CC[C@H](CC(=O)Nc2cc(-c3ccccc3)c(-c3ccc([C@]4(N)C[C@](C)(O)C4)cc3)cn2)CC1 [Example A76, N-(trans-4-(2-((5-(4-(trans-1-amino-3-hydroxy-3-methylcyclobutyl)phenyl)-4-phenylpyridin-2-yl)amino)-2-oxoethyl)cyclohexyl)-N-methylcyclobutanecarboxamide]
> 30000 nM | 23000 nM | 750 nM | 1700 nM |  | 11000 nM | COC(=O)N[C@H]1CC[C@H](CC(=O)Nc2cc(-c3ccccc3)c(-c3ccc(C4(N)CC4)c(F)c3)cn2)CC1 [Example A106, Methyl (trans-4-(2-((5-(4-(1-aminocyclopropyl)-3-fluorophenyl)-4-phenylpyridin-2-yl)amino)-2-oxoethyl)cyclohexyl)carbamate]
> 10000 nM | 2700 nM | 23 nM | 110 nM |  | 360 nM | CC(C)N(C(=O)C1CC1)[C@H]1CC[C@H](CC(=O)Nc2cc(-c3ccccc3)c(-c3ccc([C@]4(N)C[C@](C)(O)C4)cc3)cn2)CC1 [Example A108, N-(trans-4-(2-((5-(4-(trans-1-amino-3-hydroxy-3-methylcyclobutyl)phenyl)-4-phenylpyridin-2-yl)amino)-2-oxoethyl)cyclohexyl)-N-isopropylcyclopropanecarboxamide]

— US10336702B2, “Pharmaceutically active compounds” (BERGENBIO ASA, priority 2015, dated 2019)
